Molecules are shown by their SMILES.

IC50 and EC50 data for five compounds are collected here from US20240425497A1, “Cbl-b Inhibitors and Methods of Use Thereof” (ARCUS BIOSCIENCES, INC., priority 2023, published 2024).

Experiment [1] addresses Cbl-b (Homo sapiens (Human), UniProt Q13191). As to the kind of experiment: Cbl-b probe displacement HTRF binding assay. The following applies: 0.4 nM biotinylated Cbl-b, 150 nM BODIPY probe. In outline:
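Biotinylated Cbl-b (0.4 nM final) was preincubated 60 min at room temperature with compound (20-point 1:2 series, top 10 μM final), then BODIPY probe (150 nM final) was added for 15 min before streptavidin-terbium cryptate. Buffer was 20 mM Hepes, 150 mM NaCl, 0.01% Triton X-100, 0.5 mM TCEP, 0.01% BSA; IC50 was derived from a four-parameter fit of HTRF signal loss.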
A general note: In TR-FRET formats the signal depends on donor and acceptor labels being close together.

For experiment [2], the system named is Jurkat cells. As to the kind of experiment: IL-2 secretion assay in CD3/CD28-activated Jurkat cells (AlphaLISA). Particulars: CD3/CD28 activation, 24 h. In kind it is cell-based, human. In outline: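 Jurkat cells in Opti-MEM (50,000/well) preincubated 1 h at 37° C with compound (16-point 1:2 dilution, final 10 μM to […]), then activated with CD3/CD28 T cell activator for 24 h at 37° C. Secreted IL-2 in supernatant quantified by AlphaLISA; EC50 from 4-parameter logistic fit.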
A general note: Alpha assays give light when donor and acceptor beads are brought close together.

Sequence of Cbl-b (Q13191 whole entry, species assumed): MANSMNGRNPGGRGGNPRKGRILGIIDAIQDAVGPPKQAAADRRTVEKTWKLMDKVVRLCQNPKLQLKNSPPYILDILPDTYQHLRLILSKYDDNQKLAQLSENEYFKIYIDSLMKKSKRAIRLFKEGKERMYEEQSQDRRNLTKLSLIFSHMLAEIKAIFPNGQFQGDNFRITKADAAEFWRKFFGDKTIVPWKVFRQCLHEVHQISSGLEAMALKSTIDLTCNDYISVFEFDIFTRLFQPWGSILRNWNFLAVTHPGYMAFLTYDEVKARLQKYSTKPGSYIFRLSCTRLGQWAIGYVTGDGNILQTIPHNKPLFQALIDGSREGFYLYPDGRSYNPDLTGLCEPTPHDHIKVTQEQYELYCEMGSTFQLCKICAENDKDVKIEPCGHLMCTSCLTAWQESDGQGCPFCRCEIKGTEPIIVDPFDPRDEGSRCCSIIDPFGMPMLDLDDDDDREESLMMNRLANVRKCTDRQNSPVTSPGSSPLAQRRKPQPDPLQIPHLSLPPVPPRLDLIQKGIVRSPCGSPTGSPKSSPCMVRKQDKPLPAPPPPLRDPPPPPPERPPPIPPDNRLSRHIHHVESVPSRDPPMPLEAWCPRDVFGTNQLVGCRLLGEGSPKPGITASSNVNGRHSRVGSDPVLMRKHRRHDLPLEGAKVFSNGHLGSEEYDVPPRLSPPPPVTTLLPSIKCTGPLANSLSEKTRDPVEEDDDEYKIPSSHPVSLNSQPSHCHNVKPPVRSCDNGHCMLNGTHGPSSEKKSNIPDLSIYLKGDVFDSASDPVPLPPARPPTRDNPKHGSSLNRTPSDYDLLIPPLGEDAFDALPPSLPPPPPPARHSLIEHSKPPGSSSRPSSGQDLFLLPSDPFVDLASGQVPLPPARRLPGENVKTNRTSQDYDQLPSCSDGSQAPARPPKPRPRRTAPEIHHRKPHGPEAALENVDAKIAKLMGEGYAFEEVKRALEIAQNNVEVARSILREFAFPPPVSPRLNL

One may read the IC50 as the concentration that gives 50% inhibition. A low value points to inhibition by little substance. By EC50 is commonly meant the concentration needed to bring the measured effect to its halfway point. Read a low EC50 as a more potent agent. Compound `Cc1cn(-c2cc(-c3ccc(F)cc3C(=O)N3CC(F)C3)cc(C3CC3)n2)c(=O)c2[nH]c([C@@H]3CCCN3)nc12` [Example 50, 5-[6-cyclopropyl-4-[4-fluoro-2-(3-fluoroazetidine-1-carbonyl)phenyl]pyridin-2-yl]-7-methyl-2-[(2S)-pyrrolidin-2-yl]-3H-imidazo[4,5-c]pyridin-4-one] displayed an IC50 in experiment [1] of 100 to 1000 nM. This compound also showed an EC50 in experiment [2] (Homo sapiens) greater than 5000 nM.
For the compound `N#Cc1c[nH]c2c(=O)n(-c3cc(-c4ccc(F)cc4C(=O)C4CC(F)C4)cc(C4CC4)n3)cc(C(F)(F)F)c12` (stereo not shown) [Example 51, 6-[6-cyclopropyl-4-[4-fluoro-2-(3-fluorocyclobutanecarbonyl)phenyl]pyridin-2-yl]-7-oxo-4-(trifluoromethyl)-1H-pyrrolo[2,3-c]pyridine-3-carbonitrile], the half-maximal inhibitory concentration (IC50) in experiment [1] is less than 100 nM. In experiment [2], the EC50 was in the range of 100 to 1000 nM.
On to `O=C(c1cc(F)ccc1-c1cc(C2CC2)nc(-n2cc(C(F)(F)F)c3cc(CO)[nH]c3c2=O)c1)C1CC(F)C1` (stereo not shown) [Example 52, 6-[6-cyclopropyl-4-[4-fluoro-2-(3-fluorocyclobutanecarbonyl)phenyl]pyridin-2-yl]-2-(hydroxymethyl)-4-(trifluoromethyl)-1H-pyrrolo[2,3-c]pyridin-7-one], for which the half-inhibitory concentration (IC50) in experiment [1] was less than 100 nM. Moreover, the EC50 in experiment [2] (Homo sapiens) fell in the range of 100 to 1000 nM.
The corresponding values for `N#Cc1c(CO)[nH]c2c(=O)n(-c3cc(-c4ccc(F)cc4C(=O)C4CC(F)C4)cc(C4CC4)n3)cc(C(F)(F)F)c12` (stereo not shown) [Example 53, 6-[6-cyclopropyl-4-[4-fluoro-2-(3-fluorocyclobutanecarbonyl)phenyl]pyridin-2-yl]-2-(hydroxymethyl)-7-oxo-4-(trifluoromethyl)-1H-pyrrolo[2,3-c]pyridine-3-carbonitrile] are less than 100 nM and 100 to 1000 nM.
The corresponding values for `N#Cc1cn(-c2cc(-c3ccc(F)cc3C(=O)N3CC(F)C3)cc(C3CC3)n2)c(=O)c2[nH]c(CO)cc12` [Example 54, 6-(6-cyclopropyl-4-{4-fluoro-2-[(3-fluoro-1-azetidinyl)carbonyl]phenyl}-2-pyridyl)-2-(hydroxymethyl)-7-oxo-1,6-dihydro-1,6-diaza-4-indenecarbonitrile] are less than 100 nM and 100 to 1000 nM.
